# From ChEMBL document CHEMBL3351417, “Thiophene-3-carboxamide analogue of annonaceous acetogenins as antitumor drug lead” (Eur J Med Chem, 2014)
# Tested on: not listed separately
# Test: Growth inhibition of human RXF631L cells after 48 hrs by sulforhodamine B colorimetric assay
# Type: functional
# Conditions: RXF 631, 48 h
row,Compound,GI50 [µM]
1,CCCCCCCCCCCC[C@@H](O)[C@H]1CC[C@H]([C@H](O)CCCCCCCCCCNC(=O)c2cncs2)O1,> 100

# Tested on: not listed separately
# Test: Growth inhibition of human SNB78 cells after 48 hrs by sulforhodamine B colorimetric assay
# Type: functional
# Conditions: SNB-78, 48 h
row,Compound,GI50 [µM]
1,CCCCCCCCCCCC[C@@H](O)[C@H]1CC[C@H]([C@H](O)CCCCCCCCCCNC(=O)c2cncs2)O1,> 100

# Tested on: not listed separately
# Test: Growth inhibition of human DMS273 cells after 48 hrs by sulforhodamine B colorimetric assay
# Type: functional
# Conditions: DMS-273, 48 h
row,Compound,GI50 [µM]
1,CCCCCCCCCCCC[C@@H](O)[C@H]1CC[C@H]([C@H](O)CCCCCCCCCCNC(=O)c2cncs2)O1,19.1

# Tested on: MCF7
# Test: Growth inhibition of human MCF7 cells after 48 hrs by sulforhodamine B colorimetric assay
# Type: functional
# Conditions: MCF7, 48 h
row,GI50 [µM],Compound
1,> 100,CCCCCCCCCCCC[C@@H](O)[C@H]1CC[C@H]([C@H](O)CCCCCCCCCCNC(=O)c2cncs2)O1

# Tested on: NCI-H23
# Test: Growth inhibition of human NCI-H23 cells after 48 hrs by sulforhodamine B colorimetric assay
# Type: functional
# Conditions: NCI-H23, 48 h
row,GI50 [µM],Compound
1,4.79,CCCCCCCCCCCC[C@@H](O)[C@H]1CC[C@H]([C@H](O)CCCCCCCCCCNC(=O)c2cncs2)O1

# Tested on: not listed separately
# Test: Growth inhibition of human MKN1 cells after 48 hrs by sulforhodamine B colorimetric assay
# Type: functional
# Conditions: MKN-1, 48 h
row,Compound,GI50 [µM]
1,CCCCCCCCCCCC[C@@H](O)[C@H]1CC[C@H]([C@H](O)CCCCCCCCCCNC(=O)c2cncs2)O1,> 100

# Tested on: A549
# Test: Growth inhibition of human A549 cells after 48 hrs by sulforhodamine B colorimetric assay
# Type: functional
# Conditions: A549, 48 h
row,GI50 [µM],Compound
1,34.7,CCCCCCCCCCCC[C@@H](O)[C@H]1CC[C@H]([C@H](O)CCCCCCCCCCNC(=O)c2cncs2)O1

# Tested on: SNB-75
# Test: Growth inhibition of human SNB75 cells after 48 hrs by sulforhodamine B colorimetric assay
# Type: functional
# Conditions: SNB-75, 48 h
row,Compound,GI50 [µM]
1,CCCCCCCCCCCC[C@@H](O)[C@H]1CC[C@H]([C@H](O)CCCCCCCCCCNC(=O)c2cncs2)O1,> 100

# Tested on: NCI-H522
# Test: Growth inhibition of human NCI-H522 cells after 48 hrs by sulforhodamine B colorimetric assay
# Type: functional
# Conditions: NCI-H522, 48 h
row,GI50 [µM],Compound
1,19.1,CCCCCCCCCCCC[C@@H](O)[C@H]1CC[C@H]([C@H](O)CCCCCCCCCCNC(=O)c2cncs2)O1

# Tested on: NCI-H226
# Test: Growth inhibition of human NCI-H226 cells after 48 hrs by sulforhodamine B colorimetric assay
# Type: functional
# Conditions: NCI-H226, 48 h
row,GI50 [µM],Compound
1,> 100,CCCCCCCCCCCC[C@@H](O)[C@H]1CC[C@H]([C@H](O)CCCCCCCCCCNC(=O)c2cncs2)O1

# Tested on: St-4
# Test: Growth inhibition of human St-4 cells after 48 hrs by sulforhodamine B colorimetric assay
# Type: functional
# Conditions: St-4, 48 h
row,Compound,GI50 [µM]
1,CCCCCCCCCCCC[C@@H](O)[C@H]1CC[C@H]([C@H](O)CCCCCCCCCCNC(=O)c2cncs2)O1,> 100

# Tested on: not listed separately
# Test: Growth inhibition of human HBC5 cells after 48 hrs by sulforhodamine B colorimetric assay
# Type: functional
# Conditions: HBC5, 48 h
row,Compound,GI50 [µM]
1,CCCCCCCCCCCC[C@@H](O)[C@H]1CC[C@H]([C@H](O)CCCCCCCCCCNC(=O)c2cncs2)O1,> 100

# Tested on: MDA-MB-231
# Test: Growth inhibition of human MDA-MB-231 cells after 48 hrs by sulforhodamine B colorimetric assay
# Type: functional
# Conditions: MDA-MB-231, 48 h
row,GI50 [µM],Compound
1,> 100,CCCCCCCCCCCC[C@@H](O)[C@H]1CC[C@H]([C@H](O)CCCCCCCCCCNC(=O)c2cncs2)O1

# Tested on: KM12
# Test: Growth inhibition of human KM12 cells after 48 hrs by sulforhodamine B colorimetric assay
# Type: functional
# Conditions: KM12, 48 h
row,Compound,GI50 [µM]
1,CCCCCCCCCCCC[C@@H](O)[C@H]1CC[C@H]([C@H](O)CCCCCCCCCCNC(=O)c2cncs2)O1,> 100

# Tested on: not listed separately
# Test: Growth inhibition of human PC3 cells after 48 hrs by sulforhodamine B colorimetric assay
# Type: functional
# Conditions: PC-3, 48 h
row,Compound,GI50 [µM]
1,CCCCCCCCCCCC[C@@H](O)[C@H]1CC[C@H]([C@H](O)CCCCCCCCCCNC(=O)c2cncs2)O1,> 100

# Tested on: not listed separately
# Test: Growth inhibition of human OVCAR3 cells after 48 hrs by sulforhodamine B colorimetric assay
# Type: functional
# Conditions: OVCAR-3, 48 h
row,Compound,GI50 [µM]
1,CCCCCCCCCCCC[C@@H](O)[C@H]1CC[C@H]([C@H](O)CCCCCCCCCCNC(=O)c2cncs2)O1,> 100

# Tested on: not listed separately
# Test: Growth inhibition of human MKN74 cells after 48 hrs by sulforhodamine B colorimetric assay
# Type: functional
# Conditions: MKN-74, 48 h
row,Compound,GI50 [µM]
1,CCCCCCCCCCCC[C@@H](O)[C@H]1CC[C@H]([C@H](O)CCCCCCCCCCNC(=O)c2cncs2)O1,61.7

# Tested on: HT-29
# Test: Growth inhibition of human HT-29 cells after 48 hrs by sulforhodamine B colorimetric assay
# Type: functional
# Conditions: HT-29, 48 h
row,GI50 [µM],Compound
1,> 100,CCCCCCCCCCCC[C@@H](O)[C@H]1CC[C@H]([C@H](O)CCCCCCCCCCNC(=O)c2cncs2)O1

# Tested on: not listed separately
# Test: Growth inhibition of human HBC4 cells after 48 hrs by sulforhodamine B colorimetric assay
# Type: functional
# Conditions: HBC4, 48 h
row,Compound,GI50 [µM]
1,CCCCCCCCCCCC[C@@H](O)[C@H]1CC[C@H]([C@H](O)CCCCCCCCCCNC(=O)c2cncs2)O1,> 100

# Tested on: not listed separately
# Test: Growth inhibition of human HCC2998 cells after 48 hrs by sulforhodamine B colorimetric assay
# Type: functional
# Conditions: HCC 2998, 48 h
row,Compound,GI50 [µM]
1,CCCCCCCCCCCC[C@@H](O)[C@H]1CC[C@H]([C@H](O)CCCCCCCCCCNC(=O)c2cncs2)O1,> 100

# Tested on: not listed separately
# Test: Growth inhibition of human HCT15 cells after 48 hrs by sulforhodamine B colorimetric assay
# Type: functional
# Conditions: HCT-15, 48 h
row,Compound,GI50 [µM]
1,CCCCCCCCCCCC[C@@H](O)[C@H]1CC[C@H]([C@H](O)CCCCCCCCCCNC(=O)c2cncs2)O1,> 100

# Tested on: SF-268
# Test: Growth inhibition of human SF268 cells after 48 hrs by sulforhodamine B colorimetric assay
# Type: functional
# Conditions: SF-268, 48 h
row,Compound,GI50 [µM]
1,CCCCCCCCCCCC[C@@H](O)[C@H]1CC[C@H]([C@H](O)CCCCCCCCCCNC(=O)c2cncs2)O1,> 100

# Tested on: DU-145
# Test: Growth inhibition of human DU145 cells after 48 hrs by sulforhodamine B colorimetric assay
# Type: functional
# Conditions: DU-145, 48 h
row,GI50 [µM],Compound
1,> 100,CCCCCCCCCCCC[C@@H](O)[C@H]1CC[C@H]([C@H](O)CCCCCCCCCCNC(=O)c2cncs2)O1

# Tested on: not listed separately
# Test: Growth inhibition of human LOXIMVI cells after 48 hrs by sulforhodamine B colorimetric assay
# Type: functional
# Conditions: LOX IMVI
row,Compound,GI50 [µM]
1,CCCCCCCCCCCC[C@@H](O)[C@H]1CC[C@H]([C@H](O)CCCCCCCCCCNC(=O)c2cncs2)O1,> 100

# Tested on: not listed separately
# Test: Growth inhibition of human MKN28 cells after 48 hrs by sulforhodamine B colorimetric assay
# Type: functional
# Conditions: MKN-28, 48 h
row,Compound,GI50 [µM]
1,CCCCCCCCCCCC[C@@H](O)[C@H]1CC[C@H]([C@H](O)CCCCCCCCCCNC(=O)c2cncs2)O1,0.832

# Tested on: not listed separately
# Test: Growth inhibition of human SF295 cells after 48 hrs by sulforhodamine B colorimetric assay
# Type: functional
# Conditions: SF-295, 48 h
row,Compound,GI50 [µM]
1,CCCCCCCCCCCC[C@@H](O)[C@H]1CC[C@H]([C@H](O)CCCCCCCCCCNC(=O)c2cncs2)O1,43.7

# Tested on: NCI-H460
# Test: Growth inhibition of human NCI-H460 cells after 48 hrs by sulforhodamine B colorimetric assay
# Type: functional
# Conditions: NCI-H460, 48 h
row,GI50 [µM],Compound
1,34.7,CCCCCCCCCCCC[C@@H](O)[C@H]1CC[C@H]([C@H](O)CCCCCCCCCCNC(=O)c2cncs2)O1

# Tested on: SK-OV-3
# Test: Growth inhibition of human SKOV3 cells after 48 hrs by sulforhodamine B colorimetric assay
# Type: functional
# Conditions: SK-OV-3, 48 h
row,GI50 [µM],Compound
1,> 100,CCCCCCCCCCCC[C@@H](O)[C@H]1CC[C@H]([C@H](O)CCCCCCCCCCNC(=O)c2cncs2)O1

# Tested on: not listed separately
# Test: Growth inhibition of human SF539 cells after 48 hrs by sulforhodamine B colorimetric assay
# Type: functional
# Conditions: SF-539, 48 h
row,Compound,GI50 [µM]
1,CCCCCCCCCCCC[C@@H](O)[C@H]1CC[C@H]([C@H](O)CCCCCCCCCCNC(=O)c2cncs2)O1,50.1

# Tested on: not listed separately
# Test: Growth inhibition of human OVCAR8 cells after 48 hrs by sulforhodamine B colorimetric assay
# Type: functional
# Conditions: OVCAR-8, 48 h
row,Compound,GI50 [µM]
1,CCCCCCCCCCCC[C@@H](O)[C@H]1CC[C@H]([C@H](O)CCCCCCCCCCNC(=O)c2cncs2)O1,> 100

# Tested on: ACHN
# Test: Growth inhibition of human ACHN cells after 48 hrs by sulforhodamine B colorimetric assay
# Type: functional
# Conditions: not given
row,GI50 [µM],Compound
1,> 100,CCCCCCCCCCCC[C@@H](O)[C@H]1CC[C@H]([C@H](O)CCCCCCCCCCNC(=O)c2cncs2)O1

# Tested on: not listed separately
# Test: Growth inhibition of human DMS114 cells after 48 hrs by sulforhodamine B colorimetric assay
# Type: functional
# Conditions: DMS-114, 48 h
row,Compound,GI50 [µM]
1,CCCCCCCCCCCC[C@@H](O)[C@H]1CC[C@H]([C@H](O)CCCCCCCCCCNC(=O)c2cncs2)O1,0.219

# Tested on: not listed separately
# Test: Growth inhibition of human HCT116 cells after 48 hrs by sulforhodamine B colorimetric assay
# Type: functional
# Conditions: HCT-116, 48 h
row,Compound,GI50 [µM]
1,CCCCCCCCCCCC[C@@H](O)[C@H]1CC[C@H]([C@H](O)CCCCCCCCCCNC(=O)c2cncs2)O1,12.9

# Tested on: not listed separately
# Test: Growth inhibition of human OVCAR5 cells after 48 hrs by sulforhodamine B colorimetric assay
# Type: functional
# Conditions: OVCAR-5, 48 h
row,Compound,GI50 [µM]
1,CCCCCCCCCCCC[C@@H](O)[C@H]1CC[C@H]([C@H](O)CCCCCCCCCCNC(=O)c2cncs2)O1,> 100

# Tested on: not listed separately
# Test: Growth inhibition of human BSY1 cells after 48 hrs by sulforhodamine B colorimetric assay
# Type: functional
# Conditions: BSY-1, 48 h
row,Compound,GI50 [µM]
1,CCCCCCCCCCCC[C@@H](O)[C@H]1CC[C@H]([C@H](O)CCCCCCCCCCNC(=O)c2cncs2)O1,3.98

# Tested on: not listed separately
# Test: Growth inhibition of human MKN7 cells after 48 hrs by sulforhodamine B colorimetric assay
# Type: functional
# Conditions: MKN-7, 48 h
row,Compound,GI50 [µM]
1,CCCCCCCCCCCC[C@@H](O)[C@H]1CC[C@H]([C@H](O)CCCCCCCCCCNC(=O)c2cncs2)O1,0.617

# Tested on: not listed separately
# Test: Growth inhibition of human MKN45 cells after 48 hrs by sulforhodamine B colorimetric assay
# Type: functional
# Conditions: MKN-45, 48 h
row,Compound,GI50 [µM]
1,CCCCCCCCCCCC[C@@H](O)[C@H]1CC[C@H]([C@H](O)CCCCCCCCCCNC(=O)c2cncs2)O1,> 100

# Tested on: not listed separately
# Test: Growth inhibition of human OVCAR4 cells after 48 hrs by sulforhodamine B colorimetric assay
# Type: functional
# Conditions: OVCAR-4, 48 h
row,Compound,GI50 [µM]
1,CCCCCCCCCCCC[C@@H](O)[C@H]1CC[C@H]([C@H](O)CCCCCCCCCCNC(=O)c2cncs2)O1,> 100

# Tested on: U-251
# Test: Growth inhibition of human U251 cells after 48 hrs by sulforhodamine B colorimetric assay
# Type: functional
# Conditions: U-251, 48 h
row,GI50 [µM],Compound
1,> 100,CCCCCCCCCCCC[C@@H](O)[C@H]1CC[C@H]([C@H](O)CCCCCCCCCCNC(=O)c2cncs2)O1
